Legend:
[1] = system: human glioma cell line U343mga; assay: Cell uptake of boronated compounds (boron content by DCP-AES); format: cell-based; settings: U343mga cells, 6 hours incubation, 5×10^−4 M boron; for Boron content expressed as a function of total cell protein, Trial 1: trial 1: 7.2 μg boron/ml culture medium; for Boron content expressed as a function of total cell protein, Trial 2: trial 2: 7.7 μg boron/ml culture medium
Experimental: (§1) Four different tumour cell lines of human origin, including human glioma cell line U343mga, human hepatocarcinoma cell line Hep3B, human breast adenocarcinoma cell line MCF7 and human sarcoma cell line 4SS, were used for in vitro testing of the purified material from Example 3 (hereinafter designated as BF). Cells were plated on non-coated tissue culture plastics and cultured at 37° C. in incubators with humidified air, equilibrated with 5% CO2. They were grown in recommended tissue culture medium, supplemented with 10% FCS and PEST (penicillin 100 IU/ml and streptomycin […]). For passage of cells, cells were trypsinized with trypsin-EDTA (0.25% trypsin, 0.02% EDTA in phosphate buffered saline (PBS) without calcium and magnesium).
U343 mga cells were plated on Petri dishes at 75% cell density and incubated with one of boric acid (BA), vitamin B12 conjugated boron (BB), 1-4-dihydroxyboryl-phenylalanine (BPA) or BF dissolved in tissue culture medium for 6 hours. All four boronated compounds were added to and dissolved in the tissue culture medium at equimolar concentrations with respect to the boron content (5×10^−4 M boron). Incubations were stopped by removing the boron-containing tissue culture medium and by adding cold PBS buffer for washing excess of medium from cells. Cells were immediately harvested by scraping them off the plastic dish using a rubber policeman. They were collected in cold PBS and pelleted by centrifugation.
(§2) Cell samples were taken for total protein analysis according to a standard Bradford procedure. Cell pellets were processed for boron analysis by Direct Current Plasma-Atomic Emission Spectroscopy (DCP-AES). Samples (50-130 mg) were digested at 60° C. with sulfuric acid/nitric acid (1/1). Triton X-100 and water added to give a concentrations of 50 mg tissue/ml, 15% total acid v/v and 5% Triton X-100 v/v. The boron concentrations were based on a known reference sample.

[2] = system: U343mga cells; assay: Intracellular retention of boron after withdrawal of boron containing medium; format: cell-based, human; settings: for Boron content in U343mga cells, 0 hour after withdrawal of boron containing medium / Boron content in U343mga cells, 2 hours after withdrawal of boron containing medium / Boron content in U343mga cells, 7 hours after withdrawal of boron containing medium: 18 hours incubation, 5×10^−4 M boron
Experimental: as §1, §2
U343 mga cells, were plated on Petri dishes at 75% cell density and incubated with one of 1-4-dihydroxyboryl-phenylalanine (BPA) or BF in tissue culture medium for 18 hours. Both boronated compounds were added to the tissue culture medium at equimolar concentrations with respect to the boron content (5×10^−4 M boron). Incubations were stopped by replacing the boron-containing medium with culture medium without boron. Cell samples were harvested at time points 0, 2 and 7 hours where the 0 time point represents immediate after 18 hour incubation of boronated compound.
Cells were washed with cold PBS and harvested by scraping them off the plastic dish using a rubber policeman, collected in cold PBS and pelleted by centrifugation. Cell pellets were analysed for total protein and boron content as described.

[3] = system: human hepatocarcinoma cell line Hep3B; assay: BF uptake by different tumor cells: Hep3B; format: cell-based; settings: 6 hours incubation
Experimental: as §1
as §2, with “sample. […]” for “sample.”

[4] = system: human sarcoma cell line 4SS; assay: BF uptake by different tumor cells: 4SS; format: cell-based; settings: 6 hours incubation
Experimental: as §1
as §2, with “sample. […]” for “sample.”

[5] = system: tumour cell lines of human origin; assay: In vitro studies in tumour cell lines: signs of toxicity; format: cell-based; settings: Examples 4-6
Experimental: as §1

[6] = system: U343mga; assay: BF uptake by different tumor cells: U343mga; format: cell-based, human; settings: 6 hours incubation
Experimental: as §1
as §2, with “sample. […]” for “sample.”

[7] = system: human breast adenocarcinoma cell line MCF7; assay: BF uptake by different tumor cells: MCF7; format: cell-based; settings: 6 hours incubation
Experimental: as §1
as §2, with “sample. […]” for “sample.”

Compound | Boron content expressed as a function of total cell protein, Trial 1 [1] | Boron content expressed as a function of total cell protein, Trial 2 [1] | Boron content in U343mga cells, 0 hour after withdrawal of boron containing medium [2] | Boron content in U343mga cells, 2 hours after withdrawal of boron containing medium [2] | Boron content in U343mga cells, 7 hours after withdrawal of boron containing medium [2] | Boron content expressed as a function of total cell protein, Low cell density ([3]; 40-50% (low) cell density) | Boron content expressed as a function of total cell protein, High cell density ([3]; 90-100% (high) cell density) | Boron content expressed as a function of total cell protein, Low cell density ([4]; 40-50% (low) cell density) | Boron content expressed as a function of total cell protein, High cell density ([4]; 90-100% (high) cell density) | Signs of toxicity in in vitro studies [5] | Boron content expressed as a function of total cell protein, Low cell density ([6]; 40-50% (low) cell density) | Boron content expressed as a function of total cell protein, High cell density ([6]; 90-100% (high) cell density) | Share of the total uptake retained in tumour cells ([2]; 7 hours after total depletion of BF in the culture medium) | Boron content expressed as a function of total cell protein, Low cell density ([7]; MCF7, 40-50% (low) cell density) | Boron content expressed as a function of total cell protein, High cell density ([7]; MCF7, 90-100% (high) cell density)
OB(O)O [BA, boric acid] | 8 μg boron/g cell protein | – | – | – | – | – | – | – | – | – | – | – | – | – | –
N[C@@H](Cc1ccc(B(O)O)cc1)C(=O)O [BPA, 1-4-dihydroxyboryl-phenylalanine, reference compound] | 65 μg boron/g cell protein | 38 μg boron/g cell protein | 0.075 μg boron/g cell pellet | 0 μg boron/g cell pellet | 0 μg boron/g cell pellet | – | – | – | – | – | – | – | – | – | –
N^2-(4-{[(2-amino-4-oxo-3,4-dihydropteridin-6-yl)methyl]amino}benzoyl)-N-{3-[(1R,9S)-2,3,4,5,6,7,8,10,11,12-decaborabicyclo[7.2.1]dodec-1-yl]propyl}-α-glutamine and N^2-(4-{[(2-amino-4-oxo-3,4-dihydropteridin-6-yl)methyl]amino}benzoyl)-N-[3-(2,3,4,5,6,7,8,10,11,12-decaborabicyclo[7.2.1]dodec-1-yl)propyl]-L-glutamine [BF] | 560 μg boron/g cell protein | 440 μg boron/g cell protein | 0.79 μg boron/g cell pellet | 0.59 μg boron/g cell pellet | 0.3 μg boron/g cell pellet | 171 μg boron/g cell protein | 219 μg boron/g cell protein | 263 μg boron/g cell protein | 367 μg boron/g cell protein | without any signs of toxicity | 108 μg boron/g cell protein | 172 μg boron/g cell protein | 40% | 108 μg boron/g cell protein | 169 μg boron/g cell protein

Reference: patent US8183247B2, “Boron compounds useful in BNCT” (Hammercap AB, priority 2005, dated 2012)
